Source: ChEMBL document CHEMBL1154128, “Characterization of the microbial community and polyketide biosynthetic potential in the palmerolide-producing tunicate Synoicum adareanum” (2008)

Tested on: UACC-62
Experiment: Cytotoxicity against human UACC62 cells
Assay type: functional
Conditions: read-out: LC50 (the source's name)

In the case of `CC(C)=CC(=O)N/C=C/C(C)=C/[C@@H](C)[C@H]1C/C(C)=C/C=C/CC[C@H](OC(N)=O)[C@@H](O)/C=C/[C@@H](O)CCC/C=C/C(=O)O1` [PALMEROLIDE A], the CC50 is reported as 18 nM.
